Test results taken from patent US20240059700A1, “NOVEL DIACYLGLYCERIDE O-ACYLTRANSFERASE 2 INHIBITORS” (Merck Sharp & Dohme LLC, priority 2020, published 2024).

Target: human DGAT2 (hDGAT2) (Homo sapiens (Human), UniProt Q96PD7)
Experiment: DGAT2 Enzymatic Activity Assay
Format: biochemical
Conditions: membrane prep of Sf-9 insect cells expressing hDGAT2; 13C18-triolein product by LC/MS/MS
Procedure: Sf-9 insect cells were maintained in Grace's insect cell culture medium with 10% heated-inactivated fetal bovine serum, 1% Pluronic F-68 and 0.14 μg/ml Kanamycine sulfate at 27° C. in a shaker incubator. After infection with untagged baculovirus expressing human DGAT2 (hDGAT2) at multiplicity of infection (MOI) 3 for 48 hours, cells were harvested. Cell pellets were suspended in buffer containing 10 mM Tris-HCl pH 7.5, 1 mM EDTA, 250 mM sucrose and Complete Protease Inhibitor Cocktail (Sigma Aldrich), and sonicated on ice. Cell debris were removed by centrifugation at 2000×g for 15 minutes. Membrane fractions were isolated by ultracentrifugation (100,000×g), resuspended in the same buffer, and frozen (−80° C.) for later use. The protein concentration was determined with the Pierce™ BCA Protein Assay Kit (Thermo Fisher Scientific). Expression of protein levels was analyzed by immunoblotting with rabbit anti-DGAT2 antibody (Abcam, ab102831) and donkey anti-rabbit IgG H&L Alexa Fluor® 647 (Abcam, ab150075) followed by detection using Typhoon FLA9000 (GE Healthcare).
LC/MS/MS analyses were performed using Thermal Fisher's LX4-TSQ Vantage system. This system consists of an Agilent binary high-performance liquid chromatography (HPLC) pumps and a TSQ Vantage triple quadrupole MS/MS instrument. For each sample, 2 μL samples from the top organic layer of in-plate liquid-liquid extraction were injected onto a Thermo Betabasic C4 column (2.1 mm×20 mm, 5 μm particle size). The samples were then eluted using the following conditions; mobile phase: Isopropanol: acetonitrile/10 mM ammonium formate=50/35/15 (v/v/v), flow rate: 0.8 mL/min, temperature: 25° C. Data was acquired in positive mode using a heated electrospray ionization (HESI) interface. The operational parameters for the TSQ Vantage MS/MS instrument were a spray voltage of 3000 V, capillary temperature of 280° C., vaporizer temperature 400° C., sheath gas 45 arbitrary unit, Aux gas 10 arbitrary units, S-lens 165 and collision gas 1.0 mTorr. […] (SRM) chromatograms of ^13C18-triolein (Q1: 920.8>Q3:621.3) and internal standard ^13C21-triolein (Q1: 923.8>Q3:617.3) were collected for 33 sec. The peak area was integrated by Xcalibur Quan software. The ratio between the ^13C18 triolein generated in the reaction and spiked in internal standard ^13C21-triolein was used to generate percentage inhibition and IC50 values. Compound percentage inhibition was calculated by the following formula: Inhibition %=1−[(compound response−low control)/(high control−low control)]×100%. Potent compounds were titrated and IC50 were calculated by 4 parameter sigmoidal curve fitting formula.
DGAT2 activity was determined by measuring the amount of enzymatic product ^13C18-triolein (^13C-1,2,3-Tri(cis-9-octadecenoyl)glycerol) using the membrane prep mentioned above. The assay was carried out in ABgene 384-well assay plates in a final volume of 25 μL at rt. The assay mixture contained the following: assay buffer (100 mM Tris·Cl, pH 7.0, 20 mM MgCl2, 5% ethanol), 25 μM of diolein, 5 μM of ^13C oleoyl-CoA and 8 ng/μL of DGAT2 membrane.

Chain of human DGAT2 (hDGAT2) (Q96PD7 whole entry): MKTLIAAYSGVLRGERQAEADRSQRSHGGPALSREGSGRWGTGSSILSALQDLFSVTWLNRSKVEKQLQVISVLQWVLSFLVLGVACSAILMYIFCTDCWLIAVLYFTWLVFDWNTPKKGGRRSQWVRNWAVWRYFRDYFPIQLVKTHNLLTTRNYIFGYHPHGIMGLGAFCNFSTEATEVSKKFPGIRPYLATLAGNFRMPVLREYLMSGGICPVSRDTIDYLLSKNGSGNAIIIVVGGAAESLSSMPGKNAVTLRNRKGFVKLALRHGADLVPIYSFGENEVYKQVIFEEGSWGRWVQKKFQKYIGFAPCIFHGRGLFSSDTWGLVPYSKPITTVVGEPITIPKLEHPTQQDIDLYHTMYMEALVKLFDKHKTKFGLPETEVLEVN

SMILES	IC50
CC(C)n1nc(-c2cc(OC(F)F)ccc2Cl)c2ncc(C(=O)NC3(C)CS(=O)(=O)C3)cc21 [Example 120, 3-(2-chloro-5-(difluoromethoxy)phenyl)-1-isopropyl-N-(3-methyl-1,1-dioxidothietan-3-yl)-1H-pyrazolo[4,3-b]pyridine-6-carboxamide]	0.0072 µM
C[C@]1(NC(=O)c2cc3c(cn2)c(-c2cccc(OC(F)F)c2)nn3-c2ccc(F)cc2)CCS(=O)(=O)C1 [Example 5, (S)-3-(3-(difluoromethoxy)phenyl)-1-(4-fluorophenyl)-N-(3-methyl-1,1-dioxidotetrahydrothiophen-3-yl)-1H-pyrazolo[4,3-c]pyridine-6-carboxamide]	0.011 µM
CC(C)(NC(=O)c1cnc2c(-c3cccc(OC(F)F)c3)cn(-c3ncc(F)cn3)c2c1)C(N)=O [Example 18, N-(1-amino-2-methyl-1-oxopropan-2-yl)-3-(3-(difluoromethoxy)phenyl)-1-(5-fluoropyrimidin-2-yl)-1H-pyrrolo[3,2-b]pyridine-6-carboxamide]	3.42 µM
CC(C)n1nc(-c2cccc(OC(F)F)c2)c2ncc(C(=O)NC3(CO)CCC3)cc21 [Example 49, 3-(3-(difluoromethoxy)phenyl)-N-(1-(hydroxymethyl)cyclobutyl)-1-isopropyl-1H-pyrazolo[4,3-b]pyridine-6-carboxamide]	0.0061 µM
C[C@]1(NC(=O)c2cnc3c(-c4cccc(OC(F)F)c4)cn(C4CCOCC4)c3c2)CCS(=O)(=O)C1 [Example 81, (S)-3-(3-(difluoromethoxy)phenyl)-N-(3-methyl-1,1-dioxidotetrahydrothiophen-3-yl)-1-(tetrahydro-2H-pyran-4-yl)-1H-pyrrolo[3,2-b]pyridine-6-carboxamide]	0.208 µM
CC1(NC(=O)c2cnc3c(-c4cncc(OC(F)F)c4)nn(C4CCOCC4)c3c2)CS(=O)(=O)C1 [Example 64, 3-[5-(difluoromethoxy)-3-pyridyl]-N-(3-methyl-1,1-dioxo-thietan-3-yl)-1-tetrahydropyran-4-yl-pyrazolo[4,3-b]pyridine-6-carboxamide]	0.177 µM
CC1(NC(=O)c2cnc3c(-c4cccc(OC(F)F)c4)nn(Cc4ccc(F)cc4)c3c2)CS(=O)(=O)C1 [Example 70, 3-(3-(difluoromethoxy)phenyl)-1-(4-fluorobenzyl)-N-(3-methyl-1,1-dioxidothietan-3-yl)-1H-pyrazolo[4,3-b]pyridine-6-carboxamide]	0.04 µM
Cc1cc(C(=O)N[C@@]2(C)CCS(=O)(=O)C2)cc2c1c(-c1cccc(OC(F)F)c1)nn2C1CCOCC1 [Example 84, (S)-3-(3-(difluoromethoxy)phenyl)-4-methyl-N-(3-methyl-1,1-dioxidotetrahydrothiophen-3-yl)-1-(tetrahydro-2H-pyran-4-yl)-1H-indazole-6-carboxamide]	0.013 µM
CC1(NC(=O)c2cnc3c(-c4cccc(OC(F)F)c4)nn(C4CCOCC4C(F)(F)F)c3c2)CS(=O)(=O)C1 (stereo not drawn) [Example 71, 3-(3-(difluoromethoxy)phenyl)-N-(3-methyl-1,1-dioxidothietan-3-yl)-1-(3-(trifluoromethyl)tetrahydro-2H-pyran-4-yl)-1H-pyrazolo[4,3-b]pyridine-6-carboxamide]	0.095 µM
CC(C)(O)Cn1nc(-c2cccc(OC(F)F)c2)c2ncc(C(=O)NC3(C)CS(=O)(=O)C3)cc21 [Example 111, 3-(3-(difluoromethoxy)phenyl)-1-(2-hydroxy-2-methylpropyl)-N-(3-methyl-1,1-dioxidothietan-3-yl)-1H-pyrazolo[4,3-b]pyridine-6-carboxamide]	0.022 µM
CC(C)n1nc(-c2cccc(OC(F)F)c2)c2ncc(C(=O)N[C@H]3CCC[C@H]3O)cc21 [Example 44, 3-(3-(difluoromethoxy)phenyl)-N-((1S,2R)-2-hydroxycydopentyl)-1-isopropyl-1H-pyrazolo[4,3-b]pyridine-6-carboxamide]	0.064 µM
CC(C)n1nc(-c2cc(OCC(F)(F)F)ncc2F)c2ncc(C(=O)NC3(C)CS(=O)(=O)C3)cc21 [Example 122, 3-(5-fluoro-2-(2,2,2-trifluoroethoxy)pyridin-4-yl)-1-isopropyl-N-(3-methyl-1,1-dioxidothietan-3-yl)-1H-pyrazolo[4,3-b]pyridine-6-carboxamide]	0.0077 µM
C[C@]1(NC(=O)c2cc3c(cn2)c(-c2ccccc2Cl)cn3-c2ccc(F)cc2)CCS(=O)(=O)C1 [Example 14, (S)-3-(2-chlorophenyl)-1-(4-fluorophenyl)-N-(3-methyl-1,1-dioxidotetrahydrothiophen-3-yl)-1H-pyrrolo[3,2-c]pyridine-6-carboxamide]	0.292 µM
CC(C)n1nc(-c2cc(OC(F)F)ccc2F)c2ncc(C(=O)NC3(C)CS(=O)(=O)C3)cc21 [Example 113, 3-(5-(difluoromethoxy)-2-fluorophenyl)-1-isopropyl-N-(3-methyl-1,1-dioxidothietan-3-yl)-1H-pyrazolo[4,3-b]pyridine-6-carboxamide]	0.001 µM
Cc1nc2c(-c3nn(C(C)C)c4cc(C(=O)NC5(C)CS(=O)(=O)C5)cnc34)cccc2o1 [Example 123, 1-isopropyl-N-(3-methyl-1,1-dioxidothietan-3-yl)-3-(2-methylbenzo[d]oxazol-4-yl)-1H-pyrazolo[4,3-b]pyridine-6-carboxamide]	0.487 µM
CC(C)NC(=O)c1cnc2c(-c3cccc(OC(F)F)c3)cn(-c3ncc(F)cn3)c2c1 [Example 16, 3-(3-(difluoromethoxy)phenyl)-1-(5-fluoropyrirnidin-2-yl)-N-isopropyl-1H-pyrrolo[3,2-b]pyridine-6-carboxamide]	0.209 µM
CC(C)n1nc(-c2cccc(OC(F)F)c2)c2ncc(C(=O)NC3(CO)CCOCC3)cc21 [Example 74, 3-(3-(difluoromethoxy)phenyl)-N-(4-(hydroxymethyl)tetrahydro-2H-pyran-4-yl)-1-isopropyl-1H-pyrazolo[4,3-b]pyridine-6-carboxamide]	0.064 µM
Cc1ncc(OC(F)F)cc1-c1nn(C(C)C)c2cc(C(=O)NC3(C)CS(=O)(=O)C3)ncc12 [Example 35, 3-(5-(difluoromethoxy)-2-methylpyridin-3-yl)-1-isopropyl-N-(3-methyl-1,1-dioxidothietan-3-yl)-1H-pyrazolo[4,3-c]pyridine-6-carboxamide]	0.285 µM
CC(C)n1nc(-c2cccc(OC(F)F)n2)c2ncc(C(=O)NC3(C)CS(=O)(=O)C3)cc21 [Example 96, 3-[6-(difluoromethoxy)-2-pyridyl]-1-isopropyl-N-(3-methyl-1,1-dioxo-thietan-3-yl)pyrazolo[4,3-b]pyridine-6-carboxamide]	5.54 µM
CC(C)n1nc(-c2cc(OC(F)F)ccn2)c2ncc(C(=O)NC3(C)CS(=O)(=O)C3)cc21 [Example 98, 3-[4-(difluoromethoxy)-2-pyridyl]-1-isopropyl-N-(3-methyl-1,1-dioxo-thietan-3-yl)pyrazolo[4,3-b]pyridine-6-carboxamide]	0.69 µM
Cc1ncc(OC(F)F)cc1-c1nn(C(C)C)c2cc(C(=O)N[C@]3(C)CS(=O)(=O)C[C@H]3O)cnc12 [Example 56, 3-(5-(difluoromethoxy)-2-methylpyridin-3-yl)-N-((3S,4S)-4-hydroxy-3-methyl-1,1-dioxidotetrahydrothiophen-3-yl)-1-isopropyl-1H-pyrazolo[4,3-b]pyridine-6-carboxamide]	0.209 µM
